Results on one compound are retold here after ChEMBL document CHEMBL4507319 (2021).

Test [1] has as its target CDK6/cyclin D3 (Homo sapiens) (UniProt P30281+Q00534). As to the kind of experiment: CDK6/cyclinD3(h) Eurofins kinase panel. To be noted: Compound concentration 1.0 uM. The class given is protein-complex assay.
For test [2], the target named is T1, Serine/threonine-protein kinase Chk1 (Homo sapiens) (UniProt O14757).
T1 sequence (whole entry): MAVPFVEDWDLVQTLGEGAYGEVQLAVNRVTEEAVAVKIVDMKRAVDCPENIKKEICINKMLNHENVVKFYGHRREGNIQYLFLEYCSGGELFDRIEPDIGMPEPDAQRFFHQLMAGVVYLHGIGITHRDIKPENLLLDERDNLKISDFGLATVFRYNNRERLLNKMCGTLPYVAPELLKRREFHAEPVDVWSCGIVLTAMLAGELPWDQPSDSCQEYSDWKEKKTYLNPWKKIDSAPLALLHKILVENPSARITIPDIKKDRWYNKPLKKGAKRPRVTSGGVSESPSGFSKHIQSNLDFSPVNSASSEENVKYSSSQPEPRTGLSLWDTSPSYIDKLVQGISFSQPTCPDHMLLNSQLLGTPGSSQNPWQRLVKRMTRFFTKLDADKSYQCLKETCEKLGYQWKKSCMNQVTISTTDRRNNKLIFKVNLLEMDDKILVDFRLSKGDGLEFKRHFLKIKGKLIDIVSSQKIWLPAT
The test can be described thus: CHK1(h) Eurofins kinase panel. The note with it: Compound concentration 1.0 uM.

In test [3] the target is T2, Tyrosine-protein kinase Mer (Homo sapiens) (UniProt Q12866).
T2 sequence (whole entry): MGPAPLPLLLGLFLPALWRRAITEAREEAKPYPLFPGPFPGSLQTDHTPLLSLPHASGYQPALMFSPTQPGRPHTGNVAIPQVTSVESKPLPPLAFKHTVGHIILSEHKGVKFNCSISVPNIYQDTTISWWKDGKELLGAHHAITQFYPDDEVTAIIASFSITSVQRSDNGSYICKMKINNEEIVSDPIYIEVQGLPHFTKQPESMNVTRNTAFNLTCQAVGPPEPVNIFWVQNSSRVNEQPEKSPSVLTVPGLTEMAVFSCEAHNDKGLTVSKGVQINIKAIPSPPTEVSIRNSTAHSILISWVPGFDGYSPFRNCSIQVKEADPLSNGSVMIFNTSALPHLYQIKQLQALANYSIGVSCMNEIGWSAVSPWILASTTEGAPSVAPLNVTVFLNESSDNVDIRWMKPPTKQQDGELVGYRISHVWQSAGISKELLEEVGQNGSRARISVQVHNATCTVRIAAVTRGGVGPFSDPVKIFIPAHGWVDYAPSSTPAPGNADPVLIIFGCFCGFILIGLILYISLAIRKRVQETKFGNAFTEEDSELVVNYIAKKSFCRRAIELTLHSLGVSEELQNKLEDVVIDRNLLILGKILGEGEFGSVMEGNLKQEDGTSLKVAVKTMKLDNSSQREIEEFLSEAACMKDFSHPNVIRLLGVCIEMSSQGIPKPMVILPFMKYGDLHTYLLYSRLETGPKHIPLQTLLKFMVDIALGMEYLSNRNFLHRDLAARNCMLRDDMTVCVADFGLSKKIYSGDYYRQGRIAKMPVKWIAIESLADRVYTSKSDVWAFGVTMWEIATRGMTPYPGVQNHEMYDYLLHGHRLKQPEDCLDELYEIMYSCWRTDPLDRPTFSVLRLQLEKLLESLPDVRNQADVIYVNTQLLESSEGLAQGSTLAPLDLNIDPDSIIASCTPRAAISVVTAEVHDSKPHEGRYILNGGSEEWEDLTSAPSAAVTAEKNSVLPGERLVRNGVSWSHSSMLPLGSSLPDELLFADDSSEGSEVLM
The test can be described thus: Mer(h) Eurofins kinase panel. The note with it: Compound concentration 1.0 uM.

Test [4] has as its target Serine/threonine-protein kinase mTOR (Homo sapiens) (UniProt P42345). As to the kind of experiment: mTOR(h) Eurofins kinase panel. To be noted: Compound concentration 1.0 uM.
Test [5] concerns the target Receptor-interacting serine/threonine-protein kinase 2 (Homo sapiens) (UniProt O43353). The test can be described thus: RIPK2(h) Eurofins kinase panel. To be noted: Compound concentration 1.0 uM.
Test [6] addresses T3, Serine/threonine-protein kinase TBK1 (Homo sapiens) (UniProt Q9UHD2).
T3 sequence (whole entry): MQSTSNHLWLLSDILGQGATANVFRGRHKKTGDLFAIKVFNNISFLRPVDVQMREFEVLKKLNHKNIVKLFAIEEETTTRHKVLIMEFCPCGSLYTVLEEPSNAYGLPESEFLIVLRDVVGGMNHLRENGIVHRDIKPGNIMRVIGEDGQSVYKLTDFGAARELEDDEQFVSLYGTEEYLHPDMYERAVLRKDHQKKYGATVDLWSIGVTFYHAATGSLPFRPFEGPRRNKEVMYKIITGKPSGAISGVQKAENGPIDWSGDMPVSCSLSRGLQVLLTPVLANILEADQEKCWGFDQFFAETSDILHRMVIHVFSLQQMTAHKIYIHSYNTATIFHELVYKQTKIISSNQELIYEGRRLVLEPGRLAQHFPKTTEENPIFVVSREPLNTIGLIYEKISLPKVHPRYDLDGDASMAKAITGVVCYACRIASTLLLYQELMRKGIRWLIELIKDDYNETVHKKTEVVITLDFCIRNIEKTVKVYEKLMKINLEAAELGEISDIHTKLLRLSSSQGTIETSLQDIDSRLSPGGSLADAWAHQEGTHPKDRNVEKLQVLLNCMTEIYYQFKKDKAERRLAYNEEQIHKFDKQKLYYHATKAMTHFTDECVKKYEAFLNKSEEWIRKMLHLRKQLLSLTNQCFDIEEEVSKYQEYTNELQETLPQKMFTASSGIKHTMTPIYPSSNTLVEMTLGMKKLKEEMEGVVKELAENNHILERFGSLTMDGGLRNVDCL
As to the kind of experiment: TBK1(h) Eurofins kinase panel. The note with it: Compound concentration 1.0 uM.

In test [7] the target is T4, Testis-specific serine/threonine-protein kinase 3 (Homo sapiens) (UniProt Q96PN8).
T4 sequence (whole entry): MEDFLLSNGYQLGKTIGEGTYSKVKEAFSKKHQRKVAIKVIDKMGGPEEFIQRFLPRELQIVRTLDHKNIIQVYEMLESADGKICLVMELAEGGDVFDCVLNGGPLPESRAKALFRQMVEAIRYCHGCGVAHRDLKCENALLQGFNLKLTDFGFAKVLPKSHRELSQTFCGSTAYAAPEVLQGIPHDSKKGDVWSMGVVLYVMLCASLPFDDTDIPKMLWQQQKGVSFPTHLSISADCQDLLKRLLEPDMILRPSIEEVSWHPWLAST
As to the kind of experiment: TSSK3(h) Eurofins kinase panel. The note with it: Compound concentration 1.0 uM.

The next test concerns Rec1. The test can be described thus: REC-1 cell line Proliferation assay. The class given is functional, Homo sapiens. To be noted: time 3 day.
Test [8] deals with Ribosomal protein S6 kinase alpha-2 (Homo sapiens, UniProt Q15349). The note with it: Compound concentration 1.0 uM.
Ribosomal protein S6 kinase alpha-2, sequence (Q15349 whole entry): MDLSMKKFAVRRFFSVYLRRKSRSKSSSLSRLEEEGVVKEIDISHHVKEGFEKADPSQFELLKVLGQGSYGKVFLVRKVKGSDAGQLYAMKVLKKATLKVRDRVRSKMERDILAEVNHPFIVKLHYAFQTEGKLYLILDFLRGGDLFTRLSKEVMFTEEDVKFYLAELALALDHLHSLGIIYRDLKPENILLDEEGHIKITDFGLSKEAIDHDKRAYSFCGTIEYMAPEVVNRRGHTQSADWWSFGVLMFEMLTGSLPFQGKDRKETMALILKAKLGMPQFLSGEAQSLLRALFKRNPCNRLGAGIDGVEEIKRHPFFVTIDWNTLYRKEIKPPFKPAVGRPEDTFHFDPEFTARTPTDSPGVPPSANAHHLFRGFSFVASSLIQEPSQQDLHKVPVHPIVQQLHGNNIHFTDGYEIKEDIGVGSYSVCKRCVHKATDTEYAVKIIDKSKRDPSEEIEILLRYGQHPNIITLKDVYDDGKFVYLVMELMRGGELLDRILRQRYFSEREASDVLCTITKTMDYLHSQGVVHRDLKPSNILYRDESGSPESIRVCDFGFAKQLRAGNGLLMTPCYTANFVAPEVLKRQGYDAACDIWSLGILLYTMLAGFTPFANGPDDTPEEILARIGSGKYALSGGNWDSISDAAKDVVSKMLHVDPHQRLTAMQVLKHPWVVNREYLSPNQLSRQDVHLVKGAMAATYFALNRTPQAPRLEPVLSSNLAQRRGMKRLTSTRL

Receptor-interacting serine/threonine-protein kinase 2 (Homo sapiens), sequence (O43353 whole entry): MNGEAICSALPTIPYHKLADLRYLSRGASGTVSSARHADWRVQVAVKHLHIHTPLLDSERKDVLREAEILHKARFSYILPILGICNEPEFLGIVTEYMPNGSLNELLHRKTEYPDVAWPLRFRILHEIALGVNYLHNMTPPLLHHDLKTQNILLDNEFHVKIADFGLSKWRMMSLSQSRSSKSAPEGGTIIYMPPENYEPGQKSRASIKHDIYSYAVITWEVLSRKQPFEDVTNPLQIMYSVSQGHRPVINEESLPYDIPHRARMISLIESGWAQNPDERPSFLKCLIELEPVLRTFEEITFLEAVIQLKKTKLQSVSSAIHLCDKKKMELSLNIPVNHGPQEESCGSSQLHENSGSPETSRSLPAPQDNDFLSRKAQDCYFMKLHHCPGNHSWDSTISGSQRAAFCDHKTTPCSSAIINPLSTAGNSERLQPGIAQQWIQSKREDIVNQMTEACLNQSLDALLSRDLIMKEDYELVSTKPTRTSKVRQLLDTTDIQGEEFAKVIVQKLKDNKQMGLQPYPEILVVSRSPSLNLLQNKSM

Turning to `CCc1ccccc1C(=O)Nc1n[nH]c2c(C)c(F)c(C3C(C#N)=C(C)N(C)C(C)=C3C#N)cc12` [BAY-3827], the % residual kinase activity in [1] was 110%; in test [2], 112%; in test [3], 96%; in test [4] it was 116%; in test [5], 115%; in [6] it was 106%. Moreover, the % residual kinase activity in [7] was 110%; in test [8], 5%. Also, the “Cell Proliferation IC50” value in the test with Rec1 was 3.3 µM.
